The target in experiment [1] is T1, ICAM-1 binding to immobilized Mac-1 (Homo sapiens, UniProt P05107+P11215).
T1 construct: made in house; host or cells: transfected 293 cells (Mac-1)
The experiment is described as follows: Mac-1/ICAM-1 screening assay (solid-phase ELISA). The following applies: read-out: Mac-1/ICAM-1 Protein-Protein Assay IC50. An outline of the steps: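 Competitive solid-phase ELISA: membrane Mac-1 from transfected 293 cells coated at 3 μg/mL in 20 mM Hepes pH 7.2/0.14 M NaCl/1 mM MnCl2; compounds (0.12 nM-20 μM, 1:4 series) plus 5dICAM-Ig (40 μg/mL, added) 2 h at 37° C. Bound ICAM-Ig detected with HRP anti-human IgG Fc, TMB, A450; IC50 reported.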

The subject of experiment [2] is T lymphocyte proliferation (C57BI/6 spleen cells with irradiated BALB/c spleen cells). In words: Mixed lymphocyte reaction (MLR), one-way. Format: cell-based, mice. The following applies: Mus musculus, T-lymphocyte; read-out: MLR IC50. An outline of the steps:
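One-way murine MLR: C57BI/6 responder splenocytes proliferate against irradiated BALB/c stimulators while exposed to serially diluted antagonists in supplemented RPMI1640 for 3 days. Proliferation read as [3H]-thymidine uptake over a final 6 h pulse (0.5 μCi/well), scintillation counted.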

T1 sequence (P05107 23-769, other chains not shown): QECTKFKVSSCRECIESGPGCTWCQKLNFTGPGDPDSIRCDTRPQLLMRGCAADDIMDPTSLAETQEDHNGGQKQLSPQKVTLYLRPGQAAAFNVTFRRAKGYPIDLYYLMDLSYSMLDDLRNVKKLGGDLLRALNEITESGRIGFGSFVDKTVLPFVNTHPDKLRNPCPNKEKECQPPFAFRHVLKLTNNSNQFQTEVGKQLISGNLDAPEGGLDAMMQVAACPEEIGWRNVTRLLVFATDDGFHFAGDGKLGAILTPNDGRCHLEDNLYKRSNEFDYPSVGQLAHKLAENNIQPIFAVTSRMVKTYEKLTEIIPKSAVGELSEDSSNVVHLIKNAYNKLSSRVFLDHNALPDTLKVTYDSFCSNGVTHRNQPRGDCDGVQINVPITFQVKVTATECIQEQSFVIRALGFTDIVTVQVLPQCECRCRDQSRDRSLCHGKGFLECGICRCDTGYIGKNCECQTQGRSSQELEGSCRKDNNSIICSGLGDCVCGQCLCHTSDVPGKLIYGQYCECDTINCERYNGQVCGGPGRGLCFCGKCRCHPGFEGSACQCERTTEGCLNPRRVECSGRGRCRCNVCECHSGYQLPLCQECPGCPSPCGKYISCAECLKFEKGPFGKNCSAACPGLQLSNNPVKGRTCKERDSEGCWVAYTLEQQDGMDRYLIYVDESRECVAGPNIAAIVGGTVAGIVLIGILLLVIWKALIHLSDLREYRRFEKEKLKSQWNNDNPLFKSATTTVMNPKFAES

Take `O=C1CC[C@@H](C(=O)NC[C@H](NC(=O)c2ccc(C(=O)NCc3cccc(O)c3)cc2Cl)C(=O)O)O1` [Example 96]: the results for the IC50 in experiment [1] and in experiment [2] were 56 nM and 1300 nM, respectively.

With `O=C(NCc1cccc(O)c1)c1ccc(C(=O)N[C@@H](CNC(=O)C2CC2)C(=O)O)c(Cl)c1` [Example 97], the IC50 was determined as 121 nM in experiment [1] and 1550 nM in experiment [2].

For `O=C(NCc1cccc(O)c1)c1ccc(C(=O)N[C@@H](CNC(=O)C2(c3ccccc3)CC2)C(=O)O)c(Cl)c1` [Example 99], the IC50 was 50 nM in experiment [1] and 2000 nM in experiment [2].

On to `O=C(NCc1cccc(O)c1)c1ccc(C(=O)N[C@@H](CNC(=O)C2CCC2)C(=O)O)c(Cl)c1` [Example 100], for which the values for the IC50 in experiment [1] and in experiment [2] were 32 nM and 705 nM, respectively.

Turning to `COCCC1(C(=O)NC[C@H](NC(=O)c2ccc(C(=O)NCc3cccc(O)c3)cc2Cl)C(=O)O)CCCC1` [Example 102], the IC50 in experiment [1] was determined as 50 nM; in experiment [2] it was 400 nM.

Take `O=C(NCc1cccc(O)c1)c1ccc(C(=O)N[C@@H](CNC(=O)[C@H](CC2CCCCC2)n2cccc2)C(=O)O)c(Cl)c1` [Example 110]: the results for the IC50 in experiment [1] and in experiment [2] were 272 nM and 10000 nM, respectively.

For `Cc1noc(C)c1CCC(=O)NC[C@H](NC(=O)c1ccc(C(=O)NCc2cccc(O)c2)cc1Cl)C(=O)O` [Example 111], the IC50 in experiment [1] was 44 nM; in experiment [2], 500 nM.

As for `C/C=C/C(=O)NC[C@H](NC(=O)c1ccc(C(=O)NCc2cccc(O)c2)cc1Cl)C(=O)O` [Example 113], the IC50 in experiment [1] was found to be 30 nM; in experiment [2] it was 350 nM.

For the compound `COc1ccc(/C=C/C(=O)NC[C@H](NC(=O)c2ccc(C(=O)NCc3cccc(O)c3)cc2Cl)C(=O)O)cc1` [Example 114], the IC50 amounted to 48 nM in experiment [1] and 1650 nM in experiment [2].

Take `O=C(/C=C/c1cccnc1)NC[C@H](NC(=O)c1ccc(C(=O)NCc2cccc(O)c2)cc1Cl)C(=O)O` [Example 115]: the IC50 in experiment [1] stood at 43 nM; in experiment [2], 1350 nM.

Turning to `O=C(NCc1cccc(O)c1)c1ccc(C(=O)N[C@@H](CNC(=O)c2ccccc2Br)C(=O)O)c(Cl)c1` [Example 120], the IC50 in experiment [1] amounted to 114 nM; in experiment [2], 890 nM.

As for `O=C(NCc1cccc(O)c1)c1ccc(C(=O)N[C@@H](CNC(=O)c2ccccc2Cl)C(=O)O)c(Cl)c1` [Example 122], the IC50 in experiment [1] came to 32 nM; in experiment [2] it was 925 nM.

In the case of `O=C(NCc1cccc(O)c1)c1ccc(C(=O)N[C@@H](CNC(=O)c2ccc(Cl)cc2)C(=O)O)c(Cl)c1` [Example 124], the values for the IC50 in experiment [1] and in experiment [2] were 35 nM and 2500 nM, respectively.

In the case of `CN(C)c1ccc(C(=O)NC[C@H](NC(=O)c2ccc(C(=O)NCc3cccc(O)c3)cc2Cl)C(=O)O)cc1` [Example 128], the values for the IC50 in experiment [1] and in experiment [2] were 124 nM and 4900 nM, respectively.

With `CCOc1ccc(C(=O)NC[C@H](NC(=O)c2ccc(C(=O)NCc3cccc(O)c3)cc2Cl)C(=O)O)cc1` [Example 130], the IC50 amounted to 53 nM in experiment [1] and 3000 nM in experiment [2].

For `COc1ccc(C(=O)NC[C@H](NC(=O)c2ccc(C(=O)NCc3cccc(O)c3)cc2Cl)C(=O)O)cc1` [Example 135], the IC50 in experiment [1] worked out at 61 nM; in experiment [2] it was 2640 nM.

Consider `Cc1ccc(C(=O)NC[C@H](NC(=O)c2ccc(C(=O)NCc3cccc(O)c3)cc2Cl)C(=O)O)cc1` [Example 139], for which the IC50 was 47 nM in experiment [1] and 1750 nM in experiment [2].

For the compound `CCCCCOc1ccc(C(=O)NC[C@H](NC(=O)c2ccc(C(=O)NCc3cccc(O)c3)cc2Cl)C(=O)O)cc1` [Example 143], the IC50 in experiment [1] was 62 nM; in experiment [2], 12000 nM.

Take `O=C(NCc1cccc(O)c1)c1ccc(C(=O)N[C@@H](CNC(=O)c2ccccc2Oc2ccccc2)C(=O)O)c(Cl)c1` [Example 144]: the values for the IC50 in experiment [1] and in experiment [2] were 53 nM and 1800 nM, respectively.

In the case of `COc1cc(C(=O)NC[C@H](NC(=O)c2ccc(C(=O)NCc3cccc(O)c3)cc2Cl)C(=O)O)cc(OC)c1OC` [Example 147], the IC50 in experiment [1] was 119 nM; in experiment [2], 4600 nM.

Regarding `O=C(NCc1cccc(O)c1)c1ccc(C(=O)N[C@@H](CNC(=O)c2ccc([N+](=O)[O-])o2)C(=O)O)c(Cl)c1` [Example 149], the IC50 is 35 nM in experiment [1] and 950 nM in experiment [2].

With `Cc1cccc(C(=O)NC[C@H](NC(=O)c2ccc(C(=O)NCc3cccc(O)c3)cc2Cl)C(=O)O)n1` [Example 163], the IC50 in experiment [1] was 40 nM; in experiment [2], 1550 nM.

Consider `O=C(NCc1cccc(O)c1)c1ccc(C(=O)N[C@@H](CNC(=O)c2cccnc2)C(=O)O)c(Cl)c1` [Example 165], for which the IC50 in experiment [1] was 39 nM; in experiment [2], 800 nM.

Take `O=C(NCc1cccc(O)c1)c1ccc(C(=O)N[C@@H](CNS(=O)(=O)c2ccccc2)C(=O)O)c(Cl)c1` [Example 360, 3-(phenylsulfonylamino)-N-[2-chloro-4-[[[(3-hydroxyphenyl)methyl]amino]carbonyl]benzoyl]-L-alanine]: the IC50 turned out to be 600 nM in experiment [1] and 4600 nM in experiment [2].

As to `CC(=O)Nc1nc(C)c(S(=O)(=O)NC[C@H](NC(=O)c2ccc(C(=O)N[C@H](C)c3cccc4ccccc34)cc2Cl)C(=O)O)s1` [Example 362], the IC50 was found to be 1530 nM in experiment [1] and 15000 nM in experiment [2].

Consider `O=C(NCc1ccc(C(=O)N[C@@H](CNC(=O)c2ccccc2)C(=O)O)c(Cl)c1)c1cccc(O)c1` [Example 364, N-[2-chloro-4-[[(3-hydroxyphenyl)carbonyl]aminomethyl]benzoyl]-3-benzoylamino-L-alanine], for which the IC50 is 167 nM in experiment [1] and 2850 nM in experiment [2].

On to `O=C(NC[C@H](NC(=O)c1ccc(CNC(=O)c2ccccc2O)cc1Cl)C(=O)O)c1ccccc1` [Example 365], for which the IC50 in experiment [1] was 208 nM; in experiment [2] it was 9500 nM.

For the compound `O=C(NCc1ccc(C(=O)N[C@@H](CNC(=O)c2ccccc2)C(=O)O)c(Cl)c1)c1cc(O)cc(O)c1` [Example 366], the IC50 in experiment [1] turned out to be 61 nM; in experiment [2] it was 1400 nM.

Take `O=C(NCc1ccc(C(=O)N[C@@H](CNC(=O)c2ccccc2)C(=O)O)c(Cl)c1)c1ccc2[nH]ccc2c1` [Example 368]: the figures for the IC50 in experiment [1] and in experiment [2] were 765 nM and 3850 nM, respectively.

Consider `O=C(NCc1ccc(C(=O)N[C@@H](CNC(=O)c2ccccc2)C(=O)O)c(Cl)c1)c1ccc2cc[nH]c2c1` [Example 369], for which the IC50 in experiment [1] stood at 403 nM; in experiment [2], 3200 nM.

For the compound `N=C(N)NC[C@H](NC(=O)c1ccc(C(=O)NCc2cccc(O)c2)cc1Cl)C(=O)O` [Example 371, N-[2-chloro-4-[[[(3-hydroxyphenyl)methyl]amino]-carbonyl]benzoyl]-3-(aminoiminomethyl)amino-L-alanine], the IC50 was 73 nM in experiment [1] and 3500 nM in experiment [2].

For `O=C(NC[C@H](NC(=O)c1ccc(/C=C/Cc2ccccc2)cc1Cl)C(=O)O)c1cccs1` [Example 373, N-[2-chloro-4-(3-phenyl-1-propenyl)benzoyl]-3-(thiophene-2-carbonyl)amino-L-alanine], the IC50 was found to be 68 nM in experiment [1] and 12500 nM in experiment [2].

Consider `O=C(NC[C@H](NC(=O)c1ccc(C(=O)[C@H]2C[C@@H]2c2ccccc2)cc1Cl)C(=O)O)c1cccs1` [Example 377], for which the IC50 in experiment [1] was determined as 160 nM; in experiment [2] it was 9500 nM.

`O=C(CCc1ccccc1)c1ccc(C(=O)N[C@@H](CNC(=O)c2cccs2)C(=O)O)c(Cl)c1` [Example 378]: the IC50 in experiment [1] amounted to 75 nM; in experiment [2] it was 6400 nM.

The record behind these values is patent US20040006236A1, “Diaminopropionic acid derivatives” (priority 1999, published 2004).
